# Results reported in patent US20170052172A1, “IMMUNE HEPATOTOXICITY SCREENING METHOD USING HEPATOCYTES DERIVED FROM HUMAN STEM CELLS” (KOREA ADVANCED INSTITUTE OF SCIENCE AND TECHNOLOGY, priority 2014, published 2017).
# Key:
# [1] = system: hepatocytes differentiated from human embryonic stem cells (hESC4)
# Method: (§1) Particularly, the hepatocytes at 19th day of the differentiation from human stem cells, which were prepared by the method described in Example 1, were distributed in a 6-well plate (90%/well), and then the medium was replaced with 1000 mg/L DMEM-low glucose medium (Dulbecco's Modified Eagle's Medium, Welgene No. 001-11), followed by culture for 2 hours. Then, the stem cell derived hepatocyte culture medium was obtained. To eliminate by-products of the cell culture, centrifugation was performed at 12,000×g, for 20 minutes at 4° C. Supernatant was obtained. The capture antibodies, 2.5 μg/ml anti-IL-1β antibody, 2 μg/ml anti-IL-6 antibody, 2.5 μg/ml anti-IL-10 antibody, 2 μg/ml anti-IL-12 antibody, 1 μg/ml anti-TNF-α antibody, 2 μg/ml anti-IFN-α antibody, 1 μg/ml anti-IFN-β antibody, and 2 μg/ml anti-TGF-β antibody, were cultured at 37° C. for 2 hours, with which 96-well ELISA plate was coated. The plate was washed, followed by blocking with 0.2% I-block (Foster city, CA) at 37° C. for 2 hours. Upon completion of the blocking, the capture antibodies were washed and cultured with a standard material (2 fold serial diluted in protein free flexible plate from 10 ng/ml to 4.88 pg/ml) and the supernatant in ELISA plate (Greiner, Kremsmunster, Austria) at 37° C. for 2 hours. Upon completion of the culture, the biotinylated detection antibodies (anti-IL-1β antibody: 2 μg/ml, anti-IL-6 antibody: 1 μg/ml, anti-IL-10 antibody: 1 μg/ml, anti-IL-12 antibody: 1 μg/ml, anti-TNF-α antibody: 1 μg/ml, anti-IFN-α antibody: 4 μg/ml, anti-IFN-β antibody: 2 μg/ml, anti-TGF-β antibody: 1 μg/ml, final concentration) were added thereto, followed by further culture at 37° C. for 2 hours. Then, alkaline phosphatase conjugated streptavidin was added thereto, followed by further culture at room temperature for 30 minutes. 5 mM nitrophenyl phosphate substrate was added thereto, and OD405 was measured by using ELISA reader.
# (§2) Particularly, the hepatocytes at 19th day of the differentiation from human stem cells, which were prepared by the method described in Example 1, were distributed in a 6-well plate (90%/well), and then the medium was replaced with 1000 mg/L DMEM-low glucose medium (Dulbecco's Modified Eagle's Medium, Welgene No. 001-11), followed by culture for 2 hours.
# [2] = system: human hepatocytes (hES15); assay: Cytokine ELISA secretion profiling of human hepatocytes after drug treatment
# Method: Upon completion of the culture, the maturation of hepatocytes was induced by the same manner as described in Example 1 and then the matured hepatocytes were obtained (FIG. 1).
# as §1
# Particularly, the hepatocytes at 19th day of the differentiation from human stem cells, which were prepared by the method described in Example 1, were distributed in a 6-well plate (90%/well), and then the medium was replaced with 1000 mg/L DMEM-low glucose medium (Dulbecco's Modified Eagle's Medium, Welgene No. 001-11), followed by culture for 2 hours. […] Then, culture fluids of the hepatocytes differentiated from stem cells and the human hepatocytes were obtained to extract immunotoxic materials therefrom. To eliminate by-products of the cultured cells, centrifugation was performed at 12,000×g for 20 minutes at 4° C., and then supernatant was obtained. […]
# [3] = system: hepatocytes differentiated from human embryonic stem cells (hESC4); assay: Cytokine ELISA secretion profiling of stem cell derived hepatocytes after drug treatment; conditions: ELISA of supernatant
# Method: as §1, §2
# [4] = CCl4 0, 5, 10, 20 mM for 24 hours, ELISA of supernatant
# [5] = CCl4 0, 5, 10, 20 mM for 24 hours
SMILES,ethanol induced toxic reaction [1],"IFN-α detected [2, 4]","IL-10 detected [2, 4]","cytokine secretion compared with hepatocytes differentiated from stem cells ([2]; considering the smaller number of human hepatocytes, CCl4: cytokines, acetaminophen: IL-6 and IFN-β)","IL-6 detected ([2]; treatment for 24 hours (CCl4 0, 5, 10, 20 mM; acetaminophen 0, 10, 20 mM), ELISA of supernatant)","IFN-α detected [3, 5]","IL-10 detected [3, 5]","IL-6 detected ([3]; treatment for 24 hours (CCl4 0, 5, 10, 20 mM; acetaminophen 0, 10, 20 mM))"
CCO [ethanol],did not show ethanol induced toxic reaction,–,–,–,–,–,–,–
ClC(Cl)(Cl)Cl [CCl4],–,also detected in the cells,also detected in the cells,secreted more in human hepatocytes,also detected in the cells,detected in the cells CCl4 dose dependently,detected in the cells CCl4 dose dependently,detected in the cells CCl4 dose dependently
